The record followed here is article PMC7582770, “Synthesis of “All-Cis” Trihydroxypiperidines from a Carbohydrate-Derived Ketone: Hints for the Design of New β-Gal and GCase Inhibitors” (Molecules, 2020).

Test [1] has as its target T1, human lysosomal β-glucosidase (GCase) (Homo sapiens, UniProt P04062).
T1 construct: in leukocytes isolated from healthy donors (controls); endogenous in cells; host or cells: human leukocytes from healthy donors, disrupted by sonication (crude homogenate)
T1 sequence (P04062 40-536): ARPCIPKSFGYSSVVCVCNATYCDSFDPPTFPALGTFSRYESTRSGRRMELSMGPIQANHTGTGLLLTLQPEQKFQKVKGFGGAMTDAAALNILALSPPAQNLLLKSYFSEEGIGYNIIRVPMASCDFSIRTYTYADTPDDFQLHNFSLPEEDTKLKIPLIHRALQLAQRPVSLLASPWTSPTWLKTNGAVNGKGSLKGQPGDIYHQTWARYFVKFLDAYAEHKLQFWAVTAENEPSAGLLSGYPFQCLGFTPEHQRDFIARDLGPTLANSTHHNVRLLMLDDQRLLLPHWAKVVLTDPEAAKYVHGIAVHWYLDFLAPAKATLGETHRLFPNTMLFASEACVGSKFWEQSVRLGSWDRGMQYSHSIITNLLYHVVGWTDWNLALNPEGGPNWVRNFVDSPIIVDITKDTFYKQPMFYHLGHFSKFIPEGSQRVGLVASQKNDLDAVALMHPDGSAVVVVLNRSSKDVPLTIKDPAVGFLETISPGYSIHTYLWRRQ
The test can be described thus: GCase inhibition in human leukocyte homogenates. The conditions noted are these: human leukocytes extracts; for inhibition at 1000 µM / GCase Inhibition (%): compounds 1 mM; for IC50: 4-methylumbelliferyl-β-D-glucoside 3.33 mM. It counts as biochemical. The method, then:
The new compounds were screened at 1 mM concentration towards β-galactosidase (β-Gal) and β-glucosidase (GCase) in leukocytes isolated from healthy donors (controls). Isolated leukocytes were disrupted by sonication, and a Micro BCA Protein Assay Kit (Sigma–Aldrich, St. Louis, MO, USA) was used to determine the total protein amount for the enzymatic assay, according to the manufacturer’s instructions.
GCase activity was measured in a flat-bottomed 96-well plate. Compound solution (3 µL), 4.29 µg/µL leukocytes homogenate (7 µL), and substrate 4-methylumbelliferyl-β-D-glucoside (3.33 mM, 20 µL, Sigma–Aldrich Chemie Gmbh, Munich, Germany)) in citrate/phosphate buffer (0.1:0.2, M/M, pH 5.8) containing sodium taurocholate (0.3%) and Triton X-100 (0.15%) at 37 °C were incubated for 1 h. The reaction was stopped by addition of sodium carbonate (200 µL; 0.5 M, pH 10.7) containing Triton X-100 (0.0025%), and the fluorescence of 4-methylumbelliferone released by β-glucosidase activity was measured in SpectraMax M2 Microplate Reader (λex = 365 nm and λem = 435 nm; Molecular Devices LLC, San Jose, CA, US). Percentage GCase inhibition is given with respect to the control (without compound). Data are mean SD (n = 3). For compounds showing GCase inhibitory activity higher than 80% at 1 mM concentration, the IC50 values were determined by measuring the initial hydrolysis rate with 4-methylumbelliferyl-β-D-glucoside (3.33 mM). Data obtained were fitted by using the appropriate equation (for more details, see the Supplementary Materials).
IC50 for compounds 9, 10, 12 and 21 towards human lysosomal β-glucosidase The IC50 values of inhibitors against β-glucosidase were determined by measuring the initial hydrolysis rate with 4-methylumbelliferyl-β-D-glucoside (3.33 mM). Data obtained were fitted to the following equation using the Origin Microcal program. where Vi/Vo, represent the ratio between the activity measured in the presence of the inhibitor (Vi) and the activity of the control without the inhibitor (V0), “x” the inhibitor concentration, Max and Min, the maximal and minimal enzymatic activity observed, respectively.
Figure S48: IC of compound 9 towards GCase
Figure S49: IC50 of compound 10 towards GCase
(also on this page, place not known: Min x MinMax Vo Vi slope + […] […] […] […] […] […]+ −= 1 be tween (V i) (V 0), IC50) […]

Test [2] relates to β-N-acetylglucosaminidase EC 3.2.1.52. The test can be described thus: Commercial glycosidase screening. The conditions noted are these: 0.1 mM inhibitor. It counts as biochemical, bovine kidney. An excerpt:
(§1) A panel of 12 commercial glycosidases (α-L-fucosidase EC 3.2.1.51 from Homo sapiens, α-galactosidase EC 3.2.1.22 from coffee beans, β-galactosidases EC 3.2.1.23 from Escherichia coli and Aspergillus oryzae, α-glucosidases EC 3.2.1.20 from yeast and rice, amyloglucosidase EC 3.2.1.3 from Aspergillus niger, β-glucosidase EC 3.2.1.21 from almonds, α-mannosidase EC 3.2.1.24 from Jack beans, β-mannosidase EC 3.2.1.25 from snail, β-N-acetylglucosaminidases EC 3.2.1.52 from Jack beans and bovine kidney) purchased from Sigma-Aldrich (St. Louis, MO, USA) or Megazyme Ltd. (Bray, Co. Wicklow, Ireland) was screened.
(§2) The percentage (%) of inhibition towards the corresponding glycosidase was determined in quadruplicate in the presence of 100 μM of the inhibitor on the well. Each enzymatic assay (final volume 0.12 mL) contains 0.01–0.5 units/mL of the enzyme (with previous calibration) and 4.2 mM aqueous solution of the appropriate p-nitrophenyl glycopyranoside (substrate) buffered to the optimal pH of the enzyme. Enzyme and inhibitor were preincubated for 5 min at room temperature, and the reaction started by addition of the substrate. After 20 min of incubation at 37 °C, the reaction was stopped by the addition of 0.1 mL of sodium borate solution (pH 9.8). The p-nitrophenolate formed was measured by visible absorption spectroscopy at 405 nm (Asys Expert 96 spectrophotometer, Biochrom Ltd., Cambridge, England). Under these conditions, the p-nitrophenolate released led to optical densities linear with both reaction time and concentration of the enzyme (for more details, see the Supplementary Materials). The IC50 value (concentration of inhibitor required for 50% inhibition of enzyme activity) was determined from plots of % inhibition vs. different inhibitor concentrations. Each point of the graph is the average of four measures. The standard deviation for each point has been also represented in the graph.

In test [3] the target is T2, α-galactosidase EC 3.2.1.22 (Coffea arabica, UniProt Q42656).
T2 construct: purchased Sigma-Aldrich or Megazyme Ltd
T2 sequence (Q42656 16-378): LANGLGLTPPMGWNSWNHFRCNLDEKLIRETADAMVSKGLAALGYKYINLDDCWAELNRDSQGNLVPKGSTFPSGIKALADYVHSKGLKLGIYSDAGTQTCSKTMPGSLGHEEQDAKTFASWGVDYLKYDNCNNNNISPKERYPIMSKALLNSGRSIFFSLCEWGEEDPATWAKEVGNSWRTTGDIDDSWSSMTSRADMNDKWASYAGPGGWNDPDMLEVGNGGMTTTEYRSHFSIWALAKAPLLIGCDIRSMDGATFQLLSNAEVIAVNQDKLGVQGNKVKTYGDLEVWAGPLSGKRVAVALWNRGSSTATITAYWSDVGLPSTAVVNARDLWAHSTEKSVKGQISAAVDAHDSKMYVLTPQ
The test can be described thus: Commercial glycosidase screening. The class given is biochemical. The conditions noted are these: 0.1 mM inhibitor; read-out: % Inhibition at 0.1 mM, α-galactosidase coffee beans.
From the text: as §1, §2

A word on the inhibition: it is how much of the control response was suppressed. The IC50 is the midpoint of a concentration-inhibition curve. Read a low IC50 as greater potency in that assay.

Some results are limits rather than exact numbers.

As for `CCCCCCCCCO[C@H]1CNC[C@@H](O)[C@H]1O` [compound 9, (3S, 4R, 5R)-4,5-Dihydroxy-3-(Nonyloxy) Piperidine], in test [1], the inhibition at 1000 µM is over 90% and the concentration for half-maximal inhibition (IC50) stood at 12 ± 6 µM. For the same compound, in test [1] (listed as C00009), the “GCase Inhibition (%)” value is recorded as 98%.

`CCCCCCCCCCCCN[C@H]1CNC[C@@H](O)[C@H]1O` [compound 10, (3R, 4S, 5S)-3,4-Dihydroxy-5-(Dodecylamino) Piperidine]: the “% Inhibition at 0.1 mM, β-N-acetylglucosaminidase bovine kidney” value (“% Inhibition at 0.1 mM” for short) in test [2] was “- (no inhibition detected)”. In addition, in test [3], the inhibition at 100 µM turned out to be 0%. In test [1], this compound gave an inhibition at 1000 µM of over 90% and an IC50 of 6.4 ± 0.7 µM. Besides, the “GCase Inhibition (%)” value in test [1] (listed as C00010) is recorded as 100%.

As to `CCCCCCCC[C@]1(O)CNC[C@@H](O)[C@H]1O` [compound 12, (3S, 4R, 5R)-3,4,5-Trihydroxy-3-Octyl-Piperidine], the “% Inhibition at 0.1 mM” value in test [2] was “- (no inhibition detected)”. For the same compound, the inhibition at 100 µM in test [3] amounted to 0%. In test [1], this compound showed an inhibition at 1000 µM of over 90% and an IC50 of 60 ± 23 µM. In addition, the “GCase Inhibition (%)” value in test [1] (listed as C00012) was 93%.

With `CCCCCCCCCO[C@@H]1CNC[C@@H](O)[C@H]1O` [compound 21, (3R, 4R, 5R)-4,5-Dihydroxy-3-(Nonyloxy) Piperidine], the “% Inhibition at 0.1 mM” value in test [2] was “- (no inhibition detected)”. Besides, the inhibition at 100 µM in test [3] came out at 0%. Besides, in test [1], the inhibition at 1000 µM was over 90% and the midpoint of inhibition, the IC50, lay at 130 ± 13 µM. The “GCase Inhibition (%)” value in test [1] (listed as C00016) came to 100%.
